From patent US10583137B2, “Triazole DAGLα inhibitors” (THE SCRIPPS RESEARCH INSTITUTE, priority 2015, dated 2020)

Legend:
[1] = target: DAGLα (hDAGLα-FLAG) (Homo sapiens (Human), UniProt Q9Y4D2); experiment: competitive ABPP, membrane proteome of transfected HEK293T cells; type: biochemical; settings: for inhibition at 0.0032 µM: 3.2 nM, read-out: DAGLα % inh. 3.2 nM; for IC50: read-out: DAGLα IC50
Procedure, shortened: (§1)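 HEK293T membrane proteome (1 mg/ml) expressing FLAG-tagged human DAGLα or DAGLβ, treated 30 min at room temperature with compound, then 30 min with HT-01 or FP-Rh probe (1 μM). Bands separated by SDS-PAGE were normalized to DMSO for IC50 by variable-slope fit.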

[2] = target: DAGLβ (hDAGLβ-FLAG) (Homo sapiens (Human), UniProt Q8NCG7); experiment: as above; type: biochemical; settings: for inhibition at 0.0032 µM: read-out: DAGLβ % inh. 3.2 nM; for IC50: read-out: DAGLβ IC50
Procedure, shortened: as §1

Chain of DAGLβ (hDAGLβ-FLAG) (Q8NCG7 whole entry): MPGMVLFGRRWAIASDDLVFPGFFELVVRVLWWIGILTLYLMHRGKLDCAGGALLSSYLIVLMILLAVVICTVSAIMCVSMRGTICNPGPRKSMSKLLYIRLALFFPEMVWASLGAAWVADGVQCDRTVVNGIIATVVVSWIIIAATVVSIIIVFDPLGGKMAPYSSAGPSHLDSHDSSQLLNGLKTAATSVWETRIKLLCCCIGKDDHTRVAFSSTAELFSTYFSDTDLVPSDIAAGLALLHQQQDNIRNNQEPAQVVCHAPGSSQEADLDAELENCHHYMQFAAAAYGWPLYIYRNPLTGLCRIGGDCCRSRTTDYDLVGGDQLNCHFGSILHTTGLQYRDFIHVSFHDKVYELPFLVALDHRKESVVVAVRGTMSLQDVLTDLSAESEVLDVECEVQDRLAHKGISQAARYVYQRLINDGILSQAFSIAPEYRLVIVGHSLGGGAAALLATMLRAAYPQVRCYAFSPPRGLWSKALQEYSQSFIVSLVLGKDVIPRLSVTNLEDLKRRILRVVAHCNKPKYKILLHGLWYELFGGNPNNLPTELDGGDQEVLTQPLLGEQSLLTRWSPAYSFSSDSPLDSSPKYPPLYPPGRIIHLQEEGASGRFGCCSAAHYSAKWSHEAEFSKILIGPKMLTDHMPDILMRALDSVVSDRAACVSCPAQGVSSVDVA
Chain of DAGLα (hDAGLα-FLAG) (Q9Y4D2 whole entry): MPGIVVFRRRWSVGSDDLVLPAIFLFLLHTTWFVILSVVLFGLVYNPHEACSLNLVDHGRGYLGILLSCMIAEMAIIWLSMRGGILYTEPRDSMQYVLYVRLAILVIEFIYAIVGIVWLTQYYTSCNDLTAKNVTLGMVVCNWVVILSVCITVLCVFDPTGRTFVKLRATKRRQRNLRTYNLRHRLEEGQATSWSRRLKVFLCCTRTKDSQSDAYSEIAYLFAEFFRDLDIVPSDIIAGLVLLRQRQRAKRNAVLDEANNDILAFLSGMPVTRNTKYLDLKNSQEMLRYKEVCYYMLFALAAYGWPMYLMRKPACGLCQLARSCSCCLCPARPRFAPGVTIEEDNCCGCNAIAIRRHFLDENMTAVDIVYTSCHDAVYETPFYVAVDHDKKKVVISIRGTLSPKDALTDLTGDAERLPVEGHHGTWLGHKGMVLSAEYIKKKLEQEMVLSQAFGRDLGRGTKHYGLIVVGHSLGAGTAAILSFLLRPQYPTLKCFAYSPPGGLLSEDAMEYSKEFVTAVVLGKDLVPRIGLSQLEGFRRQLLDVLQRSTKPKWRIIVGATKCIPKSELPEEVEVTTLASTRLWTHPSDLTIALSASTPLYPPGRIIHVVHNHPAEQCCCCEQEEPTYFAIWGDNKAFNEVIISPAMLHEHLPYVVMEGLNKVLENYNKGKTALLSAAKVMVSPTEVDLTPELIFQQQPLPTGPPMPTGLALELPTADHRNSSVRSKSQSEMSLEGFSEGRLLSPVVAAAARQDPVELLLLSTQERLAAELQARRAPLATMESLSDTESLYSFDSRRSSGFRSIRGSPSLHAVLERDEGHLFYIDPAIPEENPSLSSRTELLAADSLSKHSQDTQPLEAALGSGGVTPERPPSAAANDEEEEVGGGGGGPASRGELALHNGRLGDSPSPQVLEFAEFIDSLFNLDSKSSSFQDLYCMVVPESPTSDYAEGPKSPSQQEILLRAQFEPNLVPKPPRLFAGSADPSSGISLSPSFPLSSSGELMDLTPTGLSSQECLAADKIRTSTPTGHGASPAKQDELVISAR

Row | SMILES | inhibition at 0.0032 µM [1] | inhibition at 0.0032 µM [2] | IC50 [1] | IC50 [2]
1 | O=C(N1C[C@H](O)C=C[C@@H]1Cc1ccccc1)n1cc(-c2ccc(OC(F)(F)F)cc2)nn1 [Compound 112, ((3R,6S)-6-benzyl-3-hydroxy-3,6-dihydropyridin-1(2H)-yl)(4-(4-(trifluoromethoxy)phenyl)-1H-1,2,3-triazol-1-yl)methanone] | 0 to 25% | 0 to 25% |  | 
2 | O=C(N1C[C@H](O)C=C[C@@H]1Cc1ccccc1)n1ncc(-c2ccc(OC(F)(F)F)cc2)n1 [Compound 113, ((3R,6S)-6-benzyl-3-hydroxy-3,6-dihydropyridin-1(2H)-yl)(4-(4-(trifluoromethoxy)phenyl)-2H-1,2,3-triazol-2-yl)methanone] | 0 to 25% | 0 to 25% |  | 
3 | O=C(N1C[C@@H](O)C=C[C@@H]1Cc1ccccc1)n1cc(-c2ccc(OC(F)(F)F)cc2)nn1 [Compound 114, ((3S,6S)-6-benzyl-3-hydroxy-3,6-dihydropyridin-1(2H)-yl)(4-(4-(trifluoromethoxy)phenyl)-1H-1,2,3-triazol-1-yl)methanone] | 0 to 25% | 0 to 25% |  | 
4 | O=C(N1C[C@@H](O)C=C[C@@H]1Cc1ccccc1)n1ncc(-c2ccc(OC(F)(F)F)cc2)n1 [Compound 115, ((3S,6S)-6-benzyl-3-hydroxy-3,6-dihydropyridin-1(2H)-yl)(4-(4-(trifluoromethoxy)phenyl)-2H-1,2,3-triazol-1-yl)methanone] | 0 to 25% | 0 to 25% |  | 
5 | CO[C@@H]1CC[C@H](Cc2ccccc2)N(C(=O)n2cc(-c3ccc(OC(F)(F)F)cc3)nn2)C1 [Compound 116, ((2R,5R)-2-benzyl-5-methoxypiperidin-1-yl)(4-(4-(trifluoromethoxy)phenyl)-1H-1,2,3-triazol-1-yl)methanone] | 25 to 50% | 0 to 25% |  | 
6 | CO[C@@H]1CC[C@H](Cc2ccccc2)N(C(=O)n2ncc(-c3ccc(OC(F)(F)F)cc3)n2)C1 [Compound 117, ((2R,5R)-2-benzyl-5-methoxypiperidin-1-yl)(4-(4-(trifluoromethoxy)phenyl)-2H-1,2,3-triazol-1-yl)methanone] | 0 to 25% | 0 to 25% |  | 
7 | CO[C@H]1CC[C@H](Cc2ccccc2)N(C(=O)n2cc(-c3ccc(OC(F)(F)F)cc3)nn2)C1 [Compound 118, ((2R,5S)-2-benzyl-5-methoxypiperidin-1-yl)(4-(4-(trifluoromethoxy)phenyl)-1H-1,2,3-triazol-1-yl)methanone] | 25 to 50% | 0 to 25% |  | 
8 | CO[C@H]1CC[C@H](Cc2ccccc2)N(C(=O)n2ncc(-c3ccc(OC(F)(F)F)cc3)n2)C1 [Compound 119] | 0 to 25% | 0 to 25% |  | 
9 | O=C(N1C[C@H](OCC2CC2)CC[C@@H]1Cc1ccccc1)n1cc(-c2ccc(OC(F)(F)F)cc2)nn1 [Compound 120, ((2R,5R)-2-benzyl-5-(cyclopropylmethoxy)piperidin-1-yl)(4-(4-(trifluoromethoxy)phenyl)-1H-1,2,3-triazol-1-yl)methanone] | ≥ 75% | 25 to 50% |  | 
10 | O=C(N1C[C@H](OCC2CC2)CC[C@@H]1Cc1ccccc1)n1ncc(-c2ccc(OC(F)(F)F)cc2)n1 [Compound 121] | 0 to 25% | 0 to 25% |  | 
11 | CC(C)(C)CN(CCc1ccccc1)C(=O)n1cc(-c2ccc(OC(F)(F)F)cc2)nn1 [Compound 123, N-neopentyl-N-phenethyl-4-(4-(trifluoromethoxy)phenyl)-1H-1,2,3-triazole-1-carboxamide] |  |  | ≤ 400 nM | ≤ 400 nM
12 | O=C(N(CCc1ccccc1)C1CCC1)n1cc(-c2ccc(OC(F)(F)F)cc2)nn1 [Compound 124, N-cyclobutyl-N-phenethyl-4-(4-(trifluoromethoxy)phenyl)-1H-1,2,3-triazole-1-carboxamide] |  |  | ≤ 400 nM | ≤ 400 nM
13 | O=C(N(CCc1ccccc1)C1CC1)n1cc(-c2ccc(OC(F)(F)F)cc2)nn1 [Compound 125, N-cyclopropyl-N-phenethyl-4-(4-(trifluoromethoxy)phenyl)-1H-1,2,3-triazole-1-carboxamide] |  |  | ≤ 400 nM | ≤ 400 nM
